Measured values published in the NIST ThermoML archive (doi:10.1016/j.tca.2012.05.025).

Test: refractive index (Na D-line) (dimensionless); xn = mol fraction of the nth substance listed
Conditions: 101 kPa, Liquid, Standard Abbe refractometry

CN(C)CCCO [3-dimethylamino-1-propanol] + O
refractive index
Conditions	x1 = 0.098	x1 = 0.197	x1 = 0.293	x1 = 0.398	x1 = 0.5	x1 = 0.598	x1 = 0.7	x1 = 0.795	x1 = 0.9	x1 = 1
293.15 K	1.3569	1.3653	1.3763	1.4033	1.4193	1.4284	1.4345	1.4393	1.443	1.4368
298.15 K	1.3562	1.3644	1.3752	1.4018	1.4172	1.4268	1.4329	1.4377	1.4405	1.4347
303.15 K	1.35534	1.3635	1.3742	1.4004	1.4155	1.4251	1.431	1.4359	1.439	1.4326
308.15 K	1.3545	1.3625	1.3731	1.3987	1.4139	1.4233	1.4291	1.4338	1.4369	1.4305
313.15 K	1.3537	1.3615	1.3719	1.3972	1.4121	1.4216	1.4273	1.4319	1.4349	1.4285
318.15 K	1.3528	1.3605	1.3708	1.3956	1.4105	1.4199	1.4255	1.4302	1.4324	1.4264
323.15 K	1.3517	1.3593	1.3696	1.3947	1.4088	1.418	1.4239	1.4286	1.4315	1.4243
328.15 K	1.3506	1.3582	1.3682	1.3925	1.4072	1.4164	1.4226	1.427	1.4301	1.4222
333.15 K	1.3502	1.3571	1.3671	1.391	1.4056	1.4146	1.4204	1.4245	1.4278	1.42
